Test results published in paper PMC11587536 (Biochemistry, 2024).

Biological target: MoLOX (Pyricularia oryzae, UniProt G4NAP4)
Sequence (G4NAP4 17-619 limits assumed): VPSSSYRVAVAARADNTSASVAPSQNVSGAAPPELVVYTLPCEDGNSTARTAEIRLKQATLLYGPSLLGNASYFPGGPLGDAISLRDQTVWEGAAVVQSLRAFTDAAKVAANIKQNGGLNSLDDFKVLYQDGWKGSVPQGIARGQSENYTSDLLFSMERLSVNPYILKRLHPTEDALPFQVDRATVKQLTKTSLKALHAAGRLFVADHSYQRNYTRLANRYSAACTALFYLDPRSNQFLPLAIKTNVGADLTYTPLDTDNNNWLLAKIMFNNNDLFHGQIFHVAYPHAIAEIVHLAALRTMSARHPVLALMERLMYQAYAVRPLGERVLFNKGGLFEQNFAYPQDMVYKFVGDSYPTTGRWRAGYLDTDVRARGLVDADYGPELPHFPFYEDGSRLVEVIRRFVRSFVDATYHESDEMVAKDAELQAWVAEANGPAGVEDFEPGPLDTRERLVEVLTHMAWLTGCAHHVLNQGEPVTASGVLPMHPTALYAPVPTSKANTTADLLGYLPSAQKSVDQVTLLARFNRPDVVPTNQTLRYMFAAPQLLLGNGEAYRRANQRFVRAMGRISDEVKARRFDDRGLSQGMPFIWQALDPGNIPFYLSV

Compound: CC/C=C\C/C=C\C/C=C\CCCCCCCC(=O)O [αLA, alpha linolenic]
- O2 electrode, steady-state kinetics: WT MoLOX reacts nearly twice as fast with αLA as with LA
